Assay results taken from patent US20110028517A1 (LABORATORIOS DEL DR. ESTEVE, S.A., priority 2008, published 2011).

Legend:
[1] = molecular target: T1, Human CB1 receptor (Homo sapiens, UniProt P21554); assay: In-vitro determination of functional activity to human CB1-receptors ([35S]GTPγS binding in presence of Win 55,212-2, CHO-CB1 membranes); format: biochemical; design: expressed in transfected cells; host or cells: CHO cells, stably transfected, membranes; details: for functional behaviour at CB1 receptor (inverse agonist or neutral antagonist): [35S]GTPγS binding relative to basal levels, FIG. 1
Procedure: The binding of [^35S]GTPγS was carried out using a modification of previously published methods Meschler, J. P., Kraichely, D. M., Wilken, G. M AND Howlet, A. C. […] Eur. J. Pharm. Sci. 2004, 23 (3): 233-43.
Human CB1 membranes were prepared from stably transfected CHO cells. Incubation mixtures consisted of CHO-CB1 membrane preparation at a final concentration of 15 μg of protein, compound (dose-response curve between 3 nM and 3 μM, final well concentration), Win 55,212-2 (0.3 μM final well concentration) and binding buffer (50 mM HEPES, pH 7.4, 100 mM KCl, 5 mM MgCl2, 1 mM EDTA, 0.1% wt/vol bovine serum albumin, 5 μM GDP, saponin 10 μg/ml). Subsequently [^35S]GTPγS (0.25 nM) was added, samples were incubated for 60 minutes at 30° C. and finally filtered. Radioactivity on filters was measured with Wallac Microbeta Trilux. Data analysis was performed by using Graph Pad Prism version 3.03 for windows. The bottom plateau of the analyzed sigmoid curves is considered the Emin (Minimal efficacy) value and values of Emin<0 represents inverse agonism of the compounds.

[2] = molecular target: T2, cannabinoid CB1 receptors present in the central nervous system (Rattus norvegicus, UniProt P20272); assay: Prevention of hypothermia produced by CP55,940 in rat; format: in vivo; details: CP55,940 0.3 mg/kg ip, FIG. 4
T2 construct: from tissue; host or cells: live Wistar rat, central nervous system
Procedure: Male Wistar rats (220-270 g) were used. Rats were fed ad libitum with pellet standard rodent chow. Animals were maintained on a 12/12 hour light-dark cycle. They were randomized into groups for compound and vehicle dosing. Animals were first dosed, p.o., with vehicle (saline +1 drop of tween) or with the (4S,5S)-5-(4-chlorophenyl)-1-(2,4-dichlorophenyl)-N-(cis-2,6-dimethylpiperidin-1-yl)-4-methyl-4,5-dihydro-1H-pyrazole-3-carboxamide enantiomer (10 or 30 mg/kg) 60 minutes prior to the second administration, i.p., with vehicle or CP 55,940 (0.3 mg/kg). Body temperature was measured using a rectal probe connected to a thermometer (CIBERTEC). Measurements were performed at T=−60, 0, 60, 120 and 240 minutes following CP55,940 administration. CP,55,940 was administered just after the measurement of Body temperature at T=0.
Data were analyzed by a two-way (treatment, time) analysis of variance (ANOVA) with repeated measure on the time factor. A covariate was included to adjust for differences between treatment groups at baseline (Time 0). Comparisons between average treatment profiles were performed by defining appropriate tests for contrasts within the ANOVA analysis. A value of P<0.05 was considered significant. Data analysis was carried out with the SAS/STAT® release 9.1 statistical package (SAS Institute Inc., Cary, N.C.).

[3] = molecular target: T3, CB1 receptors present in the CNS (Mus musculus, UniProt P47746); assay: Reversion of the analgesic effect of CP-55,940 in tail flick test in mice; format: in vivo; details: for reversion of the analgesic effect of CP-55,940: CP-55,940 0.3 mg/kg subcutaneous, FIG. 5
T3 construct: from tissue; host or cells: live CD1 mouse, central nervous system
Procedure: (§1) Male CD1 mice (Charles River Laboratories), weighting 30 to 40 g (7-8 weeks old) and Male Wistar rats (Charles River Laboratories), weighting 260-300 g (7-8 weeks old) at the time of experiment, were housed in a controlled environment. Temperature was maintained at 22±2° C. on a 12-h light/dark cycle (On at 07:00 h and Off at 19:00 h) and food and water were available ad libitum. The experiments were performed during the light phase. The number of mice ranged from 4 to 15 per group in each individual experiment. Animals were always handled in accordance with ethical principles for the evaluation of pain in conscious animals (Zimmerman, 1983) and with the European Communities Council Directive of 24 November 1986 (86/609/ECC), and received approval by the local Ethical Committee.
CP-55,940 (Ref. 0949, Tocris; Wiley et al., 1995) was administrated by subcutaneous route at 0.3 mg/kg in a volume of 5 ml/kg in mice and by intraperitoneal route at 0.5 mg/kg in a volume of 2 ml/kg in rat. NESS-0327 (Ruiu et al., 2003) was administrated by intraperitoneal route at 0.3 mg/kg and 1 mg/kg in a volume of 10 ml/kg in mice. […] All compounds were dissolved using HPMC (Hydroxypropyl methyl cellulose) which was prepared at a concentration of 0.5% in Milli-Q water.
The tail flick test was used to evaluate the antinociceptive effect of compounds. The test was performed as previously described (Moncada et al., 2003 and Robles et al., 1996). A noxious beam of light was focused on the mice tail about 4 cm from its tip, and the tail flick latency was recorded automatically to the nearest 0.1 s. The intensity of the radiant heat source was adjusted to produce latencies between 3-5 sec in vehicle treated mice and 2-4 sec in vehicle treated rats. In order to minimize cutaneous injuries a cut-off time of 10 s was used.
Mice were tested 60 min after subcutaneous administration of CP-55,940 (0.3 mg/kg) or vehicle (HPMC 0.5%).
Data are presented as tail flick latency responses in sec ±S.E.M and as percentage of analgesia ±S.E.M. The values in the control group were compared against those obtained in the treated groups. Statistical analysis to test intergroup comparisons was made using an initial one-way analysis of variant followed by the Newman-Keuls multiple comparison test. The level of significance was set at p<0.05.

[4] = molecular target: T1, Human CB1 receptor; assay: In-vitro determination of affinity to human CB1-receptors ([3H] (+)-CP55,940 radioligand binding, HEK-293 membranes); design: expressed in transfected cells; details: [3H] (+)-CP55,940 0.45 nM
Procedure: Binding affinity for CB1 receptor was evaluated according to a modification of the Govaerts S J, Hermans E and Lambert D M. “Comparison of cannabinoid ligand affinities and efficacies in murine tissues and in transfected cells expressing human recombinant cannabinoid receptors”. Eur. J. Pharm. Sci. 2004, 23 (3): 233-43 described method. Human CB1 receptor was transfected into HEK-293 cells and a stable clone obtained and membranes prepared from this clone was used as the membrane source for radioligand binding studies. [3H] (+)-CP55,940 was used as radioligand at a final concentration of 0.45 nM. The incubation buffer was Tris-HCl 50 mM, MgCl2 5 mM, EDTA 1 mM, BSA 0.5%, pH 7.4 and the non-specific binding was determined with 10 μM of HU210. Samples were incubated at 37° C. for 60 min before filtration. Radioactivity on filters was measured with Wallac Winspectral 1414 counter by liquid scintillation in Ecoscint H (National Diagnostics, U.K.).

[5] = molecular target: T4, CB1 receptors present in the CNS (Rattus norvegicus, UniProt P20272); assay: Reversion of the analgesic effect of CP-55,940 in tail flick test in rat; format: in vivo; details: 10 mg/kg oral
T4 construct: from tissue; host or cells: live Wistar rat, central nervous system
Procedure: as §1
CP-55,940 (Ref. 0949, Tocris; Wiley et al., 1995) was administrated by subcutaneous route at 0.3 mg/kg in a volume of 5 ml/kg in mice and by intraperitoneal route at 0.5 mg/kg in a volume of 2 ml/kg in rat. NESS-0327 (Ruiu et al., 2003) was administrated by intraperitoneal route at 0.3 mg/kg and 1 mg/kg in a volume of 10 ml/kg in mice. […]
The tail flick test was used to evaluate the antinociceptive effect of compounds. […] A noxious beam of light was focused on the mice tail about 4 cm from its tip, and the tail flick latency was recorded automatically to the nearest 0.1 s. […]

[6] = Selectivity for 170 targets

T3 sequence (P47746 whole entry): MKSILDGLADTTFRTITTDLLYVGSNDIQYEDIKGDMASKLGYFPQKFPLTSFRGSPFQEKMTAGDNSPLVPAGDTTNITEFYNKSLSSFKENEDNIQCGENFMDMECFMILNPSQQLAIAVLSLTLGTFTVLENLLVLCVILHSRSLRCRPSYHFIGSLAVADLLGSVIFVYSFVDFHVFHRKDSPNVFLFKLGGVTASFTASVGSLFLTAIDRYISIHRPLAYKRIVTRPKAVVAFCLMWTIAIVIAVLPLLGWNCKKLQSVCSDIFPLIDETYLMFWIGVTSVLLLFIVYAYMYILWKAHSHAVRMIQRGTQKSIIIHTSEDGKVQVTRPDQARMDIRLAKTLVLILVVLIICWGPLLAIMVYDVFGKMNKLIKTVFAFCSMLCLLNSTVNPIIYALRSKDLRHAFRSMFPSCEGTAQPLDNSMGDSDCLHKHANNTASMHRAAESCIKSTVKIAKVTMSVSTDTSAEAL
T1 sequence (P21554 whole entry): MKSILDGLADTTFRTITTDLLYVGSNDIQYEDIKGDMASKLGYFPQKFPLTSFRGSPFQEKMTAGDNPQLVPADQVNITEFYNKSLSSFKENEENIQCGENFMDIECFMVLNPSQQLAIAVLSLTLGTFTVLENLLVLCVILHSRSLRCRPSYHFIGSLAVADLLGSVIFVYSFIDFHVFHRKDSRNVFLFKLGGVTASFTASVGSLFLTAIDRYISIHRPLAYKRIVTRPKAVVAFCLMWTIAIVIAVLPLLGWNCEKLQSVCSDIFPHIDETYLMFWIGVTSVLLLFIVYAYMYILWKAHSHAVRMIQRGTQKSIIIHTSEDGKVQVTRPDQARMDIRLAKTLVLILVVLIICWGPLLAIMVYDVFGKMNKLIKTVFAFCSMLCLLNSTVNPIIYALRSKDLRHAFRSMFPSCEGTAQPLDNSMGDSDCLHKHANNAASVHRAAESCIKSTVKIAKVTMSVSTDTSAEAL
T4 sequence (P20272 whole entry): as the sequence (P47746 whole entry) above, with D95E counted along it
T2 sequence (P20272 whole entry): as the sequence (P47746 whole entry) above, with D95E counted along it

| Structure (SMILES) | functional behaviour at CB1 receptor (inverse agonist or neutral antagonist) [1] | functional behaviour at CB1 receptor (inverse agonist or neutral antagonist) ([1]; listed as racemate compound) | prevention of the hypothermia produced by CP55,940 ([2]; 10 mg/Kg p.o.) | prevention of the hypothermia produced by CP55,940 ([2]; 30 mg/Kg p.o.) | effect by itself in tail flick test ([3]; 5 mg/kg intraperitoneal, without CP-55,940) | effect by itself in tail flick test ([3]; 5 mg/kg intraperitoneal, without CP-55,940, listed as (4S,5S)-enantiomer) | Ki [4] [nM] | effect by itself in tail flick test ([5]; without CP-55,940) | effect by itself in tail flick test ([5]; without CP-55,940, listed as (4S,5S)-enantiomer) | functional behaviour at CB1 receptor (inverse agonist or neutral antagonist) ([1]; listed as (4S,5S) compound) | Emin (Minimal efficacy) ([1]; [35S]GTPγS binding, Win 55,212-2 0.3 μM, Emin<0 represents inverse agonism) | IC50 ([1]; [35S]GTPγS binding, Win 55,212-2 0.3 μM, read-out: pIC50 (potency) (converted)) [nM] | selective for 170 targets [6] [%] | reversion of the analgesic effect of CP-55,940 ([3]; 0.3 mg/kg intraperitoneal) | effect by itself in tail flick test ([3]; 0.3 mg/kg intraperitoneal, without CP-55,940) | reversion of the analgesic effect of CP-55,940 ([3]; 1 mg/kg intraperitoneal) | effect by itself in tail flick test ([3]; 1 mg/kg intraperitoneal, without CP-55,940) |
| --- | --- | --- | --- | --- | --- | --- | --- | --- | --- | --- | --- | --- | --- | --- | --- | --- | --- |
| CC1CCCC(C)N1NC(=O)C1=NN(c2ccc(Cl)cc2Cl)[C@H](c2ccc(Cl)cc2)[C@@H]1C (mixture of isomers) [racemate cis-compound, cis-5-(4-chlorophenyl)-1-(2,4-dichlorophenyl)-N-(2,6-dimethylpiperidin-1-yl)-4-methyl-4,5-dihydro-1H-pyrazole-3-carboxamide, reference compound] | behave as inverse agonists | CB1 inverse agonism | – | – | – | – | – | – | – | – | – | – | – | – | – | – | – |
| C[C@@H]1C(C(=O)NN2[C@H](C)CCC[C@@H]2C)=NN(c2ccc(Cl)cc2Cl)[C@@H]1c1ccc(Cl)cc1 [(4S,5S)-5-(4-chlorophenyl)-1-(2,4-dichlorophenyl)-N-(cis-2,6-dimethylpiperidin-1-yl)-4-methyl-4,5-dihydro-1H-pyrazole-3-carboxamide] | neutral antagonist | – | does not significantly prevent | does not significantly prevent | Neither Rimonabant (5 mg/kg) nor the (4S,5S)-5-(4-chlorophenyl)-1-(2,4-dichlorophenyl)-N-(cis-2,6-dimethylpiperidin-1-yl)-4-methyl-4,5-dihydro-1H-pyrazole-3-carboxamide enantiomer (5 mg/kg) showed an effect by themselves | Neither Rimonabant (5 mg/kg) nor the(4S,5S)-enantiomer (5 mg/kg) showed an effect by themselves | 27 ± 10 | Neither Rimonabant (10 mg/kg) nor the ((4S,5S)-5-(4-chlorophenyl)-1-(2,4-dichlorophenyl)-N-(cis-2,6-dimethylpiperidin-1-yl)-4-methyl-4,5-dihydro-1H-pyrazole-3-carboxamide enantiomer (10 mg/kg) showed an effect by themselves | Neither Rimonabant (10 mg/kg) nor (4S,5S)-enantiomer (10 mg/kg) showed an effect by themselves | behaves as a neutral antagonist | −1±8 | 30.2 | 99 | – | – | – | – |
| O=C(NN1CCCCC1)c1nn(-c2ccc(Cl)cc2Cl)c2c1CCCc1cc(Cl)ccc1-2 [NESS-0327] | – | – | – | – | – | – | – | – | – | – | – | – | – | not at 0.3 mg/kg | Neither NESS-0327 (0.3 mg/kg) nor (1 mg/kg) showed an effect by themselves | significantly inhibited | Neither NESS-0327 (0.3 mg/kg) nor (1 mg/kg) showed an effect by themselves |
